Measurements published in patent US8999960B2, “Oxidized thiophospholipid compounds and uses thereof” (Vascular Biogenics Ltd., priority 2008, dated 2015).
Several values for one entry are separate records, joined by “and”; a condition that tells them apart may be missing. Equal entries are not always repeated.

Assays:
[1] = system: phosphotyrosine (p-Tyr) in thioglycollate stimulated mouse macrophages; test: Tyrosine phosphorylation assay (Western blot, anti-phosphotyrosine antibody); format: cell-based; settings: 20 μg/ml, 10 minutes, Western blot (FIG. 1)
Protocol: Thioglycollate stimulated mouse macrophages were treated for 10 minutes with 20 μg/ml of the tested compound in phosphate buffered saline (PBS) with 1% ethanol. Treatment with either 20 μg/ml of phosphatidylcholine or solvent (PBS with 1% ethanol) was used as a negative control. Treatment with 20 μg/ml CI-201 (1-hexadecyl-2-(4′-carboxy)butyl-sn-glycero-3-phosphothiocholine) was used as a positive control.
Proteins with phosphorylated tyrosine were then observed by Western blot, using a monoclonal anti-phosphotyrosine antibody. Western blotting for ERK1/2 was performed as a control for protein loading.

[2] = system: Thioglycollate-elicited mouse peritoneal macrophages; test: In vitro toxicity assay (crystal violet staining, cell numbers); format: cell-based; settings: for Macrophage survival rate: 24 hours incubation, normalized to vehicle, mean ± SD, one of three experiments; for LD50: mouse peritoneal macrophages, 24 hours
Protocol: Thioglycollate-elicited mouse peritoneal macrophages were washed, counted and seeded (5×10^5 cells per well in 24-well plates) in triplicate wells in medium containing RPMI-1640, L-glutamine, 10% fetal calf serum (FCS) and antibiotics (penicillin/streptomycin). After a recovery period of 24 hours, the tested compound (or controls) was added to the cell medium at doses of 2, 10, 20, 50, 100 or 150 μg/ml, keeping the added volume equal in all treatments by complementing the volume with solvent.
Following addition of the compounds, the cells were incubated for an additional 24 hours, after which the cells were washed, fixed with a solution of 10% methanol/10% acetic acid and stained with crystal violet (0.4% in 20% ethanol). Cell numbers were measured by determining optical density at 595 nm. Cells incubated with vehicle (PBS with 1% ethanol) were used as a control, to which cell numbers in treated samples were normalized. Each experiment was performed three times.

[3] = system: IL12/23p40 production by peptidoglycan-activated BMDCs; test: In vitro IL12/23p40 assay (ELISA); format: cell-based, mouse; settings: 1 to 20 μg/ml added for 1 hour, then 24 hours with 10 μg/ml peptidoglycan (FIG. 2)
Protocol: Bone marrow derived cells (BMDCs) were obtained from the femur and tibia of female C57BL mice. Bone-marrow was flushed out femur and tibia with cold RPMI-1640. A cell suspension was prepared, and erythrocytes were removed using red blood cell (RBC) lysis buffer. […] Cells were then washed, resuspended in the same buffer, and depleted from B and T cells on a Midi-Macs separation unit through a LD or LS column (Miltenyi Biotech). The cells were prepared freshly for each experiment.
The depleted bone marrow cells were counted, washed and seeded at a concentration of 10^6 cells/ml in medium containing RPMI-1640, L-glutamine, β-mercaptoethanol, 10% fetal calf serum (FCS), antibiotics (penicillin/streptomycin) and 20 ng/ml of mouse GM-CSF (granulocyte-macrophage colony-stimulating factor). Medium was replaced every other day. On days 5-6 post culturing, cells were collected, counted and seeded at a concentration of 10^6 cells/ml in the above medium. CI-211 was then added for 1 hour. The cells were activated for IL12/23p40 production by incubation for 24 hours with 10 μg/ml peptidoglycan (PGN). Cytokine production from the supernatant was measured by ELISA. Activated cells without CI-211 were used as the control.

[4] = system: Thioglycollate-elicited mouse peritoneal macrophages; test: In vitro toxicity assay (crystal violet staining, cell numbers); format: cell-based; settings: 1, 2.5, 5, 10 or 20 μg/ml

Compound | tyrosine phosphorylation levels [1] | Macrophage survival rate ([2]; 2 μg/ml) | Macrophage survival rate ([2]; 20 μg/ml) | Macrophage survival rate ([2]; 50 μg/ml) | LD50 [2] | Macrophage survival rate ([2]; 10 μg/ml) | IL12/23p40 secretion [3] | toxicity at the concentrations used in the IL12/23p40 assay [4]
CCCCCCCCCCCCCCCCOC[C@H](COP(=O)([O-])OCC[N+](C)(C)C)OCCCCC(=O)O [CI-201, 1-hexadecyl 2 (4 carboxy)butyl-sn-glycero-3-phosphocholine, reference compound] | reduced | – | – | – | – | – | – | –
CCCCCCCCCCCCCCCCOCC(COP(O)(=S)OCCN)OCCCCC(=O)O (stereo not drawn) [CI-212, 1-hexadecyl-2-(4-carboxy)butyl-sn-glycero-3-O-thiophosphorylethanolamine] | reduced | 98.7 ± 10.3% and 77.5 ± 5.5% and 80.8 ± 31% | 90.6 ± 21.4% and 75.6 ± 9.5% and 97.5 ± 36.4% | 71.4 ± 11.4% and 55.1 ± 18.9% and 97.1 ± 48.1% | above 50 μg/ml and > 90 μM | – | – | –
1-hexadecyl-2-(4-carboxy)butyl-sn-glycero-3-thiophosphorylcholine [CI-211] | reduced | 124.7 ± 11.4% and 113.2 ± 7% and 90.4 ± 22.4% | – | – | above 100 μg/ml and > 167 μM | 111.6 ± 28.8% and 118.4 ± 4.2% and 127.9 ± 11.5% | decreased | non-toxic
